Laboratory results as given in PubChem BioAssay (NCI).
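All cell lines were grown in 96-well plates and treated with compound for 48 hours. GI50: concentration for 50% inhibition of growth. TGI: total growth inhibition.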

Columns and labels:
Test in all cases: growth of human tumour cells (NCI), 48 h
SN12C renal = test system: SN12C renal
MCF7 breast = test system: MCF7 breast
NCI-H23 lung = test system: NCI-H23 lung
MDA-N = test system: MDA-N
HS 578T breast = test system: HS 578T breast
NCI-H460 lung = test system: NCI-H460 lung
TK-10 renal = test system: TK-10 renal
MDA-MB-231 breast = test system: MDA-MB-231 breast
HCT-116 colon = test system: HCT-116 colon
T-47D breast = test system: T-47D breast

Structure (SMILES)	TGI (SN12C renal) [µM]	TGI (MCF7 breast) [µM]	TGI (NCI-H23 lung) [µM]	TGI (MDA-N) [µM]	TGI (HS 578T breast) [µM]	TGI (NCI-H460 lung) [µM]	TGI (TK-10 renal) [µM]	TGI (MDA-MB-231 breast) [µM]	TGI (HCT-116 colon) [µM]	TGI (T-47D breast) [µM]	GI50 (SN12C renal) [µM]	GI50 (NCI-H23 lung) [µM]	GI50 (HS 578T breast) [µM]	GI50 (NCI-H460 lung) [µM]	GI50 (TK-10 renal) [µM]	GI50 (MDA-MB-231 breast) [µM]	GI50 (HCT-116 colon) [µM]	GI50 (T-47D breast) [µM]
OC(CC(O)(C(F)(F)Cl)C(F)(F)Cl)c1ccccc1 (stereo not given)	> 10	> 10	> 10	> 10	> 10	> 10	> 10	> 10	> 10	> 10								
CCn1ncc2c(=O)n3ncn(-c4ccc(Br)cc4)c3nc21	> 100	> 100	> 100	> 100	> 100		> 100	> 100	> 100	> 100								
CC/C=N\N1C(N)=C(C#N)C(C#N)(C#N)C1CC (stereo not given)	> 100	> 100	> 100	> 100	> 100		> 100	> 100	> 100	> 100								
O=[N+]([O-])c1ccc(-c2csc(=[N+]3CCCCC3)s2)cc1	> 100		22.8			> 100	> 100		> 100									
CO[P@@]1(=O)O[C@@H](c2ccccc2)[C@H](O)[C@]1(O)c1ccccc1	> 100	> 100	> 100	> 100	> 100	> 100	> 100	> 100	> 100	> 100								
N#Cc1c(-c2ccc([N+](=O)[O-])cc2)c(C#N)c(=O)n(NS(=O)(=O)c2ccccc2)c1O	> 100	> 100		> 100		> 100	> 100	> 100	> 100									
CN(C)CCNCCCNc1c2ccccc2nc2cccc([N+](=O)[O-])c12	0.279	< 0.0268	< 0.0186		0.384	0.108	0.176	0.0832	0.0594	0.0899								
CC(C)=CCC[C@@H](C)C1=C(Nc2ccccc2F)C(O)=C(C)C(=O)C1=O	> 100	81.6	36.1	> 100	57.1	> 100	> 100	> 100	> 35.7	64.1								
Cc1cc(S(=O)(=O)N=C2Nc3cccc4cccc(c34)N2)c(S)cc1Cl		> 100		> 100	> 100	> 100		> 100	83.8	> 100								
CCOC(=O)c1c(-c2ccccc2)c(OC)cn1C	> 10	> 10	> 10	> 10	> 10	> 10	> 10	> 10	> 10	> 10								
CC(=O)/C(=N\Nc1ccc(Cl)cc1)C(C)=Nc1ccc(C)cc1	> 100		> 100	> 100	> 100		> 100	> 100	> 100	> 100								
NC(=O)NN=C1Cc2ccccc2C1	> 100	> 100	> 100	> 100	> 100	> 100	> 100	> 100	> 100	> 100								
O=C1CSC(c2c[nH]c3ccccc23)N1c1ccc(Cl)cc1Cl (stereo not given)	> 100	> 100	> 100	> 100		> 100	> 100	> 100	> 100	> 100								
O=C1c2cc3c(cc2-c2c1c1ccc(Cl)cc1c(=O)n2CCCn1ccnc1)OCO3	> 100		0.317		> 100	10.3	> 100	> 100	11	> 100	< 0.01	< 0.01	1.54	< 0.01	0.54	0.959	< 0.01	< 0.01
CCc1nc2c(c(N(C)C)c1C(=O)OC)CCc1ccccc1-2	> 100	48.2	> 100	81.5	> 100	> 100	> 100	87.8	> 100	58.1								
CC1=C(C)SC(=C2Sc3c(n(C)c(=O)n(C)c3=O)S2)S1	> 100	> 100	> 100	> 100	> 100	> 100	74.7	75.3	27.5	> 100								
COc1ccc(C2c3cc4c(cc3OC(Nc3ccccc3)C2C)OCO4)cc1 (stereo not given)	> 100	> 100	> 100	> 100	> 100	> 100	> 100	> 100	> 100	> 100								
CC1(C)C=C(/C=C2/N(S(=O)(=O)C(F)(F)F)C(/C=C3/N(S(=O)(=O)C(F)(F)F)C(C)(C#N)CC3(C)C)=CC2(C)C)N=C1/C=C1/CC(C)(C)C(=O)N1 (stereo not given)	> 100	> 100	> 100	> 100	57.7	> 100	> 100	> 100	42.8	> 100								
CC[C@]12C=CCN3CCC4(c5cc([C@@]6(C(=O)OC)CC7CN(CCc8c6[nH]c6ccccc86)CC6CCCCC67)c(OC)cc5N(C)C4[C@](O)(C(=O)OC)C1OC(C)=O)[C@@H]32 (stereo not given in full)	17.5		< 0.01		< 0.01	0.225	18.7	0.0655	0.0631									
Cc1cc(-c2cc(C(C)(C)C)c(O)c(C(C)(C)C)c2)c(C)cc1-c1cc(C(C)(C)C)c(O)c(C(C)(C)C)c1	> 100	> 100	> 100	> 100	> 100		> 100	> 100	> 100	> 100								
CC(=O)Oc1ccn2nc(C)c(Br)c2c1	> 100	> 100	> 100	> 100	> 100	> 100	> 100	> 100	> 100	> 100								
